Test [1] has as its system MCF7. Nature of the test: Antiproliferative activity against human MCF7 cells after 72 hrs by MTS assay. Conditions: MCF7, 72 h. (Tetrazolium dyes change colour on reduction, which living cells bring about.)
The test system of test [2] is A549. Nature of the test: cells. The following applies: Homo sapiens, A549, 72 h.
The test system of test [3] is HCT-116. The test can be described thus: cells. The following applies: Homo sapiens, HCT-116, 72 h.
Test [4] deals with T1, Casein kinase II subunit alpha (Homo sapiens, UniProt P68400). The test can be described thus: Competitive inhibition of GST fused human CK2alpha expressed in Escherichia coli BL21 after 10 mins in presence of ATP.
Test [5] deals with T2, Casein kinase II subunit alpha' (Homo sapiens, UniProt P19784). Nature of the test: Competitive inhibition of GST fused human CK2alpha' expressed in Escherichia coli BL21 after 10 mins in presence of ATP.
For test [6], the target named is T2, Casein kinase II subunit alpha'. Nature of the test: Inhibition of GST fused human CK2alpha' expressed in Escherichia coli BL21 at 0.3 uM.
In test [7] the target is T1, Casein kinase II subunit alpha. The test can be described thus: Inhibition of GST fused human CK2alpha expressed in Escherichia coli BL21 at 0.3 uM.
Test [8] concerns the target Dual specificity tyrosine-phosphorylation-regulated kinase 1B (Homo sapiens) (UniProt Q9Y463). Nature of the test: Inhibition of DYRK1B at 0.3 uM.
The target of test [9] is Receptor-type tyrosine-protein kinase FLT3 (Homo sapiens) (UniProt P36888). Nature of the test: Inhibition of FLT3 at 0.3 uM.
Test [10] addresses Cyclin-dependent kinase 6 (Homo sapiens) (UniProt Q00534). Nature of the test: Inhibition of CDK6 at 3 uM.
Test [11] concerns the target RAC-alpha serine/threonine-protein kinase (Homo sapiens) (UniProt P31749). The test can be described thus: Inhibition of AKT1 at 3 uM.

SMILES strings stand for the structures. Bounds are passed on as bounds.

A word on the IC50: it is the midpoint of a concentration-inhibition curve. As to `COc1ccc(C(=O)Nc2cc(-c3ccc(C(=O)O)cc3)[nH]n2)cc1`, the IC50 in test [1], in test [2] and in [3] was greater than 30 µM throughout.

Usually inhibition stands for the drop in the measured response relative to a control, in per cent. High values mean a response far below the control, low ones a response near the control. As for `COc1ccc(C(=O)Nc2ncc(-c3ccc(C(=O)O)cc3)s2)cc1`, the half-maximal inhibitory concentration (IC50) amounted to 0.032 µM in test [4]; 0.046 µM in [5]; 2.4 µM in [1]; 2.6 µM in [2]; 1.6 µM in test [3]. In addition, the inhibition was greater than 100% in [6]; 84% in test [7]; 82% in test [8]; 76% in test [9]; 32% in test [10]; 0.8% in [11].

For the compound `O=C(O)Cc1ccn(-c2cncc(-n3ncc4ccc(NC5CCCC5)cc43)n2)c1`, the figures for the IC50 in [1], in test [2] and in test [3] were 75 µM, 36 µM and 24 µM, respectively.

Regarding `COc1ccc(C(=O)Nc2nnc(-c3ccc(C(=O)O)cc3)s2)cc1`, the IC50 in [1], in test [2] and in test [3] was greater than 30 µM throughout.

With `O=C(O)c1ccc2c(c1)nc(Nc1cccc(Cl)c1)c1ccncc12` [SILMITASERTIB], the values for the concentration for half-maximal inhibition (IC50) in [1], in test [2] and in [3] were 6.5 µM, 8.2 µM and 5.2 µM, respectively.

The values are drawn from ChEMBL document CHEMBL2086313, “Structure-based design of novel potent protein kinase CK2 (CK2) inhibitors with phenyl-azole scaffolds” (J Med Chem, 2012).
